Patent US8952024B2, “Herbicidal pyrimidone derivatives” (E I du Pont de Nemours and Company, priority 2009, dated 2015)

test system: Italian ryegrass (Lolium multiflorum); test: Test B pre-/postemergence plant response; assay type: in vivo; details: Postemergence, 31 g ai/ha; 0 to 100 scale (0 no effect, 100 complete control)
In short: (§1)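 Greenhouse herbicide screen. Pre- and postemergence (1- to 4-leaf) spray of compound in solvent/surfactant mixture; loam–sand soil for pre, peat/vermiculite medium for post. Visual control rating 0–100 at 13 to 15 days after treatment.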

**Q.** `COCCn1c(-c2ccsc2)ncc(C(=O)C2=C(O)C3CCC(C3)C2=O)c1=O` (stereo not shown) [Compound 228] was tested. Which “Plant response rating, Ryegrass, Italian” value did it give?
**A.** Its value is 0.

same assay, conditions: Postemergence, 62 g ai/ha; scale 0 to 100 (0 no effect, 100 complete control)

**Q.** `COCCn1c(-c2ccsc2)ncc(C(=O)C2=C(O)C3CCC(C3)C2=O)c1=O` (stereo not shown) [Compound 228] was tested. Which “Plant response rating, Ryegrass, Italian” value did it give?
**A.** Its value is 0.

same assay, conditions: Postemergence, 250 g ai/ha; scale 0 to 100 (0 no effect, 100 complete control); 13 to 15 days

**Q.** With `COCCn1c(-c2ccsc2)ncc(C(=O)C2=C(O)C3CCC(C3)C2=O)c1=O` (stereo not shown) [Compound 228] as the compound, how does the “Plant response rating, Ryegrass, Italian” value read?
**A.** The value was 0.

test system: Surinam grass (Brachiaria decumbens); test: Test B pre-/postemergence plant response; assay type: in vivo; details: Postemergence, 31 g ai/ha; 0 to 100 scale (0 no effect, 100 complete control)
In short: as §1

**Q.** Which “Plant response rating, Surinam Grass” value does the source give for `COCCn1c(-c2ccsc2)ncc(C(=O)C2=C(O)C3CCC(C3)C2=O)c1=O` (stereo not shown) [Compound 228] here?
**A.** The value was 75.

same assay, conditions: Postemergence, 62 g ai/ha; scale 0 to 100 (0 no effect, 100 complete control)

**Q.** With `COCCn1c(-c2ccsc2)ncc(C(=O)C2=C(O)C3CCC(C3)C2=O)c1=O` (stereo not shown) [Compound 228] as the compound, how does the “Plant response rating, Surinam Grass” value read?
**A.** Its value is 85.

same assay, conditions: Postemergence, 250 g ai/ha; scale 0 to 100 (0 no effect, 100 complete control); 13 to 15 days

**Q.** With `COCCn1c(-c2ccsc2)ncc(C(=O)C2=C(O)C3CCC(C3)C2=O)c1=O` (stereo not shown) [Compound 228] as the compound, how does the “Plant response rating, Surinam Grass” value read?
**A.** Its value is 98.

test system: bermudagrass (Cynodon dactylon); test: Test B pre-/postemergence plant response; assay type: in vivo; details: Postemergence, 31 g ai/ha; 0 to 100 scale (0 no effect, 100 complete control)
In short: as §1

**Q.** For `COCCn1c(-c2ccsc2)ncc(C(=O)C2=C(O)C3CCC(C3)C2=O)c1=O` (stereo not shown) [Compound 228], which “Plant response rating, Bermudagrass” value is on record?
**A.** The value was 80.

same assay, conditions: Postemergence, 62 g ai/ha; scale 0 to 100 (0 no effect, 100 complete control)

**Q.** Which “Plant response rating, Bermudagrass” value does the source give for `COCCn1c(-c2ccsc2)ncc(C(=O)C2=C(O)C3CCC(C3)C2=O)c1=O` (stereo not shown) [Compound 228] here?
**A.** Its value is 85.

same assay, conditions: Postemergence, 125 g ai/ha; scale 0 to 100 (0 no effect, 100 complete control)

**Q.** For `COCCn1c(-c2ccsc2)ncc(C(=O)C2=C(O)C3CCC(C3)C2=O)c1=O` (stereo not shown) [Compound 228], which “Plant response rating, Bermudagrass” value is on record?
**A.** The value was 90.

same assay, conditions: Postemergence, 250 g ai/ha; scale 0 to 100 (0 no effect, 100 complete control); 13 to 15 days

**Q.** `COCCn1c(-c2ccsc2)ncc(C(=O)C2=C(O)C3CCC(C3)C2=O)c1=O` (stereo not shown) [Compound 228] was tested. Which “Plant response rating, Bermudagrass” value did it give?
**A.** The value was 95.

test system: blackgrass (Alopecurus myosuroides); test: Test B pre-/postemergence plant response; assay type: in vivo; details: Postemergence, 31 g ai/ha; 0 to 100 scale (0 no effect, 100 complete control)
In short: as §1

**Q.** How did the “Plant response rating, Blackgrass” value turn out when `COCCn1c(-c2ccsc2)ncc(C(=O)C2=C(O)C3CCC(C3)C2=O)c1=O` (stereo not shown) [Compound 228] was run?
**A.** Its value is 5.

same assay, conditions: Postemergence, 62 g ai/ha; scale 0 to 100 (0 no effect, 100 complete control)

**Q.** `COCCn1c(-c2ccsc2)ncc(C(=O)C2=C(O)C3CCC(C3)C2=O)c1=O` (stereo not shown) [Compound 228] was tested. Which “Plant response rating, Blackgrass” value did it give?
**A.** The value was 35.

same assay, conditions: Postemergence, 125 g ai/ha; scale 0 to 100 (0 no effect, 100 complete control)

**Q.** Which “Plant response rating, Blackgrass” value does the source give for `COCCn1c(-c2ccsc2)ncc(C(=O)C2=C(O)C3CCC(C3)C2=O)c1=O` (stereo not shown) [Compound 228] here?
**A.** Its value is 50.

same assay, conditions: Postemergence, 250 g ai/ha; scale 0 to 100 (0 no effect, 100 complete control); 13 to 15 days

**Q.** Which “Plant response rating, Blackgrass” value does the source give for `COCCn1c(-c2ccsc2)ncc(C(=O)C2=C(O)C3CCC(C3)C2=O)c1=O` (stereo not shown) [Compound 228] here?
**A.** Its value is 55.

test system: corn (Zea mays); test: Test B pre-/postemergence plant response; assay type: in vivo; details: Postemergence, 31 g ai/ha; 0 to 100 scale (0 no effect, 100 complete control)
In short: as §1

**Q.** With `COCCn1c(-c2ccsc2)ncc(C(=O)C2=C(O)C3CCC(C3)C2=O)c1=O` (stereo not shown) [Compound 228] as the compound, how does the “Plant response rating, Corn” value read?
**A.** Its value is 80.

same assay, conditions: Postemergence, 62 g ai/ha; scale 0 to 100 (0 no effect, 100 complete control)

**Q.** With `COCCn1c(-c2ccsc2)ncc(C(=O)C2=C(O)C3CCC(C3)C2=O)c1=O` (stereo not shown) [Compound 228] as the compound, how does the “Plant response rating, Corn” value read?
**A.** Its value is 85.

same assay, conditions: Postemergence, 125 g ai/ha; scale 0 to 100 (0 no effect, 100 complete control)

**Q.** How did the “Plant response rating, Corn” value turn out when `COCCn1c(-c2ccsc2)ncc(C(=O)C2=C(O)C3CCC(C3)C2=O)c1=O` (stereo not shown) [Compound 228] was run?
**A.** The value was 85.

same assay, conditions: Postemergence, 250 g ai/ha; scale 0 to 100 (0 no effect, 100 complete control); 13 to 15 days

**Q.** Which “Plant response rating, Corn” value does the source give for `COCCn1c(-c2ccsc2)ncc(C(=O)C2=C(O)C3CCC(C3)C2=O)c1=O` (stereo not shown) [Compound 228] here?
**A.** The value was 90.

test system: downy bromegrass (Bromus tectorum); test: Test B pre-/postemergence plant response; assay type: in vivo; details: Postemergence, 31 g ai/ha; 0 to 100 scale (0 no effect, 100 complete control)
In short: as §1

**Q.** `COCCn1c(-c2ccsc2)ncc(C(=O)C2=C(O)C3CCC(C3)C2=O)c1=O` (stereo not shown) [Compound 228] was tested. Which “Plant response rating, Bromegrass, Downy” value did it give?
**A.** The value was 5.

same assay, conditions: Postemergence, 62 g ai/ha; scale 0 to 100 (0 no effect, 100 complete control)

**Q.** Which “Plant response rating, Bromegrass, Downy” value does the source give for `COCCn1c(-c2ccsc2)ncc(C(=O)C2=C(O)C3CCC(C3)C2=O)c1=O` (stereo not shown) [Compound 228] here?
**A.** The value was 5.

same assay, conditions: Postemergence, 125 g ai/ha; scale 0 to 100 (0 no effect, 100 complete control)

**Q.** For `COCCn1c(-c2ccsc2)ncc(C(=O)C2=C(O)C3CCC(C3)C2=O)c1=O` (stereo not shown) [Compound 228], which “Plant response rating, Bromegrass, Downy” value is on record?
**A.** Its value is 10.

same assay, conditions: Postemergence, 250 g ai/ha; scale 0 to 100 (0 no effect, 100 complete control); 13 to 15 days

**Q.** How did the “Plant response rating, Bromegrass, Downy” value turn out when `COCCn1c(-c2ccsc2)ncc(C(=O)C2=C(O)C3CCC(C3)C2=O)c1=O` (stereo not shown) [Compound 228] was run?
**A.** The value was 10.

test system: giant foxtail (Setaria faberii); test: Test B pre-/postemergence plant response; assay type: in vivo; details: Postemergence, 31 g ai/ha; 0 to 100 scale (0 no effect, 100 complete control)
In short: as §1

**Q.** Which “Plant response rating, Foxtail, Giant” value does the source give for `COCCn1c(-c2ccsc2)ncc(C(=O)C2=C(O)C3CCC(C3)C2=O)c1=O` (stereo not shown) [Compound 228] here?
**A.** Its value is 85.

same assay, conditions: Postemergence, 62 g ai/ha; scale 0 to 100 (0 no effect, 100 complete control)

**Q.** For `COCCn1c(-c2ccsc2)ncc(C(=O)C2=C(O)C3CCC(C3)C2=O)c1=O` (stereo not shown) [Compound 228], which “Plant response rating, Foxtail, Giant” value is on record?
**A.** Its value is 85.

same assay, conditions: Postemergence, 125 g ai/ha; scale 0 to 100 (0 no effect, 100 complete control)

**Q.** `COCCn1c(-c2ccsc2)ncc(C(=O)C2=C(O)C3CCC(C3)C2=O)c1=O` (stereo not shown) [Compound 228] was tested. Which “Plant response rating, Foxtail, Giant” value did it give?
**A.** The value was 95.
